According to US6638956B2, “Pesticidal 1-arylpyrazoles” (Rhone-Poulenc, Inc., priority 1996, dated 2003):
Values joined by “and” are separate entries in the source; they are usually repeats but may differ in a detail not shown here. Identical values can stand only once.

Test system: not given
Settings: not given

SMILES | melting point
Nc1c(SC(F)F)c(C=NO)nn1-c1c(Cl)cc(C(F)(F)F)cc1Cl [Compound 7, 5-Amino-1-[2,6-dichloro-4-(trifluoromethyl)phenyl]-4-difluoromethylthio-1H-pyrazole-3-carboxaldehyde oxime] | 146 to 152 °C
C[S+]([O-])c1c(C(=N)NO)nn(-c2ncc(C(F)(F)F)cc2Cl)c1N (stereo not drawn) [Compound 54, 5-Amino-1-[3-chloro-5-(trifluoromethyl)-2-pyridinyl]-4-methylsulfinyl-N-hydroxy-1H-pyrazole-3-carboximidamide] | 234 to 235 °C
CC[S+]([O-])c1c(C=NO)nn(-c2c(Cl)cc(C(F)(F)F)cc2Cl)c1C (stereo not drawn) [Compound 34, 1-[2,6-Dichloro-4-(trifluoromethyl)phenyl]-4-ethylsulfinyl-5-methyl-1H-pyrazole-3-carboxaldehyde oxime] | 210 to 213 °C
CCNC1(c2c(Cl)cc(C(F)(F)F)cc2Br)NNC(C(=N)NO)=C1[S+](C)[O-] (stereo not drawn) [Compound 62, 5-[2-Bromo-6-chloro-4-(trifluoromethyl)phenyl]-5-ethylamino-4-methylsulfinyl-N-hydroxy-1H-pyrazole-3-carboximidamide] | 213 to 214 °C
C[S+]([O-])c1c(C(=N)NO)nn(-c2c(Cl)cc(OC(F)(F)F)cc2Cl)c1N (stereo not drawn) [Compound 45, 5-Amino-1-[2,6-dichloro-4-(trifluoromethoxy)phenyl]-N-hydroxy-4-methylsulfinyl-1H-pyrazole-3-carboximidamide] | 198 to 200 °C
N=C(NO)c1nn(-c2c(Cl)cc(C(F)(F)F)cc2Cl)c(C=O)c1SC(F)(F)F [Compound 22, 1-[2,6-Dichloro-4-(trifluoromethyl)phenyl]-5-formyl-N-hydroxy-4-trifluoromethylthio-1H-pyrazole-3-carboximidamide] | 72 to 75 °C
CC(=O)ON=Cc1nn(-c2c(Cl)cc(C(F)(F)F)cc2Cl)c(N)c1[S+](C)[O-] (stereo not drawn) [Compound 10, 5-Amino-1-[2,6-dichloro-4-(trifluoromethyl)phenyl]-4-methylsulfinyl-1H-pyrazole-3-carboxaldehyde O-(acetyl)oxime] | 130 to 134 °C
C[S+]([O-])c1c(C(=N)NO)nn(-c2ccc(C(F)(F)F)cc2Cl)c1N (stereo not drawn) [Compound 68, 5-Amino-1-[2-chloro-4-(trifluoromethyl)phenyl]-4-methylsulfinyl-N-hydroxy-1H-pyrazole-3-carboximidamide] | 238 to 239 °C
CON=Cc1nn(-c2c(Cl)cc(C(F)(F)F)cc2Cl)c(N)c1[S+](C)[O-] (stereo not drawn) [Compound 17, 5-Amino-1-[2,6-dichloro-4-(trifluoromethyl)phenyl]-4-methylsulfinyl-1H-pyrazole-3-carboxaldehyde O-(methyl)oxime] | 80 °C
C[S+]([O-])c1c(C(=N)NO)nn(-c2c(Cl)cc(C(F)(F)F)cc2Br)c1N (stereo not drawn) [Compound 63, 5-Amino-1-[2-bromo-6-chloro-4-(trifluoromethyl)phenyl]-4-methylsulfinyl-N-hydroxy-1H-pyrazole-3-carboximidamide] | 237 to 238 °C
C[S+]([O-])c1c(C(=N)NO)nn(-c2c(Cl)cc(C(F)(F)F)cc2Cl)c1N (stereo not drawn) [Compound 44, 5-Amino-1-[2,6-dichloro-4-(trifluoromethyl)phenyl]-N-hydroxy-4-methylsulfinyl-1H-pyrazole-3-carboximidamide] | 225 to 227 °C and 225 to 226 °C

Test system: Lucilia sericata, sleep blow fly
Settings: disclosed in WO 92/13451; cited from earlier work

SMILES | activity against Lucilia sericata
N#Cc1nc(-c2c(C=NO)nn(-c3c(Cl)cc(C(F)(F)F)cc3Cl)c2Cl)[nH]c1C#N [5-chloro-1-[2,6-dichloro-4-(trifluoromethyl)phenyl]-4-(4,5-dicyano-1H-imadazol-2-yl)-3-hydroxyiminomethyl-1H-pyrazole] | activity against a single species
